The text below walks through data of patent US7727980B2, “Tricyclic androgen receptor modulator compounds and methods” (priority 2001, dated 2010).

The target of test [1] is T1, human AR (Homo sapiens, UniProt P10275).
T1 sequence (P10275 1-920): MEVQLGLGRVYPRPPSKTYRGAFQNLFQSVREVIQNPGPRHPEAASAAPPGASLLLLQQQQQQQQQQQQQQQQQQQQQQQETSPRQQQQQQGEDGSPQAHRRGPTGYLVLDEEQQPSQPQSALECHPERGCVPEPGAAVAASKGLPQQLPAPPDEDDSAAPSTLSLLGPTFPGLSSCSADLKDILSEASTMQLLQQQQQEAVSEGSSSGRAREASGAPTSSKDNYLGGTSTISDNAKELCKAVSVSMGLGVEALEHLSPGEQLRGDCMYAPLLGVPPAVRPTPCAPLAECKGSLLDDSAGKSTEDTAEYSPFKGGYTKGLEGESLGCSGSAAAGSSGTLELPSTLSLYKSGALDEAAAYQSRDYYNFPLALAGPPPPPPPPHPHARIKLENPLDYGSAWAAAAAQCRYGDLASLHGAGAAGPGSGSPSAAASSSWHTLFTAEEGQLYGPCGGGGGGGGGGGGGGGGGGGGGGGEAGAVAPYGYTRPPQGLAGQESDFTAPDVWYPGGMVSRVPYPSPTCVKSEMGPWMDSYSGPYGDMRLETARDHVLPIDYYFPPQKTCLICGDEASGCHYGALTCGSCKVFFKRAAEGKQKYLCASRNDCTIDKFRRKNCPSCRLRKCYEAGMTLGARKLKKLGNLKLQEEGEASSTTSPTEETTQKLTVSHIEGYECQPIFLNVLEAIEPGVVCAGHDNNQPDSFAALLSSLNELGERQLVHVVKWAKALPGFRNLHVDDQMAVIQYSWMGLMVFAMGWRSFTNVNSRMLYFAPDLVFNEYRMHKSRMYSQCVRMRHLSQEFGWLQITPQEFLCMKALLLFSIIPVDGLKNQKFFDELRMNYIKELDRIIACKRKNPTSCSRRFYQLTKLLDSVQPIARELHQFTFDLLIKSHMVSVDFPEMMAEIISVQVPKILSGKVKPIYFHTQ
Nature of the test: Co-transfection assay, AR antagonist activity in presence of DHT, CV-1 cells. Set-up: expressed in transfected cells; host or cells: CV-1 cells (African green monkey kidney fibroblasts), transient transfection with pRShAR. The test is classed as cell-based. The note with it: CV-1 cells; for IC50: antagonist potency or IC50, DHT at its EC50 concentration; for AR Antagonist CV-1 Cells Efficacy (%): percent maximal inhibition, DHT at its EC50 concentration.

In test [2] the target is T1, human AR. Kind of test: Co-transfection assay, AR agonist activity, CV-1 cells. The note with it: for AR Agonist CV-1 Cells Efficacy (%): percent maximal response relative to reference agonist DHT. Set-up: expressed in transfected cells; host or cells: CV-1 cells (African green monkey kidney fibroblasts), transient transfection with pRShAR. The test is classed as cell-based.

The target in test [3] is T1, human AR. Kind of test: AR whole cell competitive binding assay (3H-DHT), transfected COS-1 cells. Also on record: expressed in transfected cells; transient transfection with pRShAR. The settings on record: COS-1 cells, 1 nM 3H-DHT, Cheng-Prusoff from IC50.
The mark [4] stands for this setting: AR Antagonist CV-1 Cells Potency (nM).
Setting [5] is: AR Agonist CV-1 Cells Potency (nM), agonist potency or EC50.

Read-outs that look alike come from different tables or passages of the source.

In the case of `O=c1cc(C(F)(F)F)c2c(ccc3c2c2ccccc2n3CC(F)(F)F)[nH]1` [Compound 158, 9-(2,2,2-Trifluoroethyl)-4-trifluoromethyl-9H-benzo[g]pyrrolo[3,2f]quinolin-2(1H)-one], the IC50 in test [1] (setting [4]) is more than 10000 nM. Also, in test [1], the “AR Antagonist CV-1 Cells Efficacy (%)” value was “na (na = not active (i.e. efficacy of <20 and potency of >10,000))”. In addition, in test [2] (setting [5]), the EC50 worked out at 7.9 nM. Besides, the “AR Agonist CV-1 Cells Efficacy (%)” value in test [2] worked out at 59%. Also, in test [3] (AR Binding Ki (nM)), the Ki (as a rule, the dissociation constant of the complex between target and ligand, obtained from inhibition or displacement) worked out at 7.1 nM.
On to `O=c1cc(C(F)(F)F)c2cc3c(cc2[nH]1)c1c(n3CC(F)(F)F)CCC1` [Compound 159, 6-(2,2,2-Trifluoroethyl)-4-trifluoromethyl-6,7,8,9-tetrahydrocyclopentano[i]pyrrolo[2,3-g]quinolin-2(1H)-one], for which the IC50 in test [1] (setting [4]) was 15 nM. Moreover, in test [1], the “AR Antagonist CV-1 Cells Efficacy (%)” value is given as 66%. In test [2] (setting [5]), the EC50 is more than 10000 nM. Further, the “AR Agonist CV-1 Cells Efficacy (%)” value in test [2] was “na (na = not active (i.e. efficacy of <20 and potency of >10,000))”. The compound further gave a Ki in test [3] (AR Binding Ki (nM)) of 989 nM.
Consider `C=CCc1c(C)[nH]c2c1ccc1[nH]c(=O)cc(C(F)(F)F)c12` [Compound 173, 7-Allyl-6-methyl-4-trifluoromethyl-5H-pyrrolo[2,3-f]quinolin-2(1H)-one], for which, in test [1] (setting [4]), the IC50 came to 1 nM. Also, the “AR Antagonist CV-1 Cells Efficacy (%)” value in test [1] turned out to be 56%. Besides, the EC50 in test [2] (setting [5]) amounted to 138 nM. Besides, the “AR Agonist CV-1 Cells Efficacy (%)” value in test [2] is 41%. In test [3] (AR Binding Ki (nM)), this compound came in with a Ki of 80 nM.
For `CCc1[nH]c2c(ccc3[nH]c(=O)cc(C(F)(F)F)c32)c1C` [Compound 175, 6-Ethyl-7-methyl-4-trifluoromethyl-5H-pyrrolo[2,3-f]quinolin-2(1H)-one], in test [1] (setting [4]), the IC50 came to 11 nM. In addition, the “AR Antagonist CV-1 Cells Efficacy (%)” value in test [1] was 78%. Also, in test [2] (setting [5]), the EC50 is more than 10000 nM. Also, the “AR Agonist CV-1 Cells Efficacy (%)” value in test [2] is “na (na = not active (i.e. efficacy of <20 and potency of >10,000))”. In test [3] (AR Binding Ki (nM)), the affinity corresponds to a Ki of 239 nM.
Take `Cc1[nH]c2c(ccc3[nH]c(=O)cc(C(F)(F)F)c32)c1CCO` [Compound 177, 7-(2-Hydroxyethyl)-6-methyl-4-trifluoromethyl-5H-pyrrolo[2,3-f]quinolin-2(1H)-one]: in test [1] (setting [4]), the IC50 came to 790 nM. Also, the “AR Antagonist CV-1 Cells Efficacy (%)” value in test [1] came out at 98%. Moreover, in test [2] (setting [5]), the EC50 is more than 10000 nM. The “AR Agonist CV-1 Cells Efficacy (%)” value in test [2] is “na (na = not active (i.e. efficacy of <20 and potency of >10,000))”. The affinity in test [3] (AR Binding Ki (nM)) corresponds to a Ki of 31 nM.
Take `CC1CCc2cc3[nH]c(=O)cc(C(F)(F)F)c3cc2N1CC1CC1` (stereo not drawn) [Compound 195, 4-Trifluoromethyl-7-methyl-6-cyclopropylmethyl-6,7,8,9-tetrahydropyrido[2,3-g]quinolin-2(1H)-one]: the IC50 in test [1] (setting [4]) is more than 10000 nM. In test [1], the “AR Antagonist CV-1 Cells Efficacy (%)” value was “na (na = not active (i.e. efficacy of <20 and potency of >10,000))”. Also, the “AR Agonist CV-1 Cells Efficacy (%)” value in test [2] came to 78%. Besides, the affinity in test [3] (AR Binding Ki (nM)), expressed as Ki, was 20 nM.
As for `CC1CCc2cc3[nH]c(=O)cc(C(F)(F)F)c3cc2N1CC(F)(F)F` (stereo not drawn) [Compound 197, 4-Trifluoromethyl-7-methyl-6-(2,2,2-trifluoroethyl)-6,7,8,9-tetrahydropyrido[2,3-g]quinolin-2(1H)-one], the IC50 in test [1] (setting [4]) is more than 10000 nM. Also, in test [1], the “AR Antagonist CV-1 Cells Efficacy (%)” value is “na (na = not active (i.e. efficacy of <20 and potency of >10,000))”. This compound also gave an EC50 in test [2] (setting [5]) of 12 nM. The “AR Agonist CV-1 Cells Efficacy (%)” value in test [2] stood at 66%. Besides, the affinity in test [3] (AR Binding Ki (nM)), expressed as Ki, was 79 nM.
Regarding `O=c1cc(C(F)(F)F)c2cc3c(cc2[nH]1)CCCN3CC(F)(F)F` [Compound 198, 4-Trifluoromethyl-6-(2,2,2-trifluoroethyl)-6,7,8,9-tetrahydropyrido[2,3-g]quinolin-2(1H)-one], the IC50 in test [1] (setting [4]) was more than 10000 nM. Further, the “AR Antagonist CV-1 Cells Efficacy (%)” value in test [1] was “na (na = not active (i.e. efficacy of <20 and potency of >10,000))”. The compound further displayed an EC50 in test [2] (setting [5]) of 1.7 nM. In addition, the “AR Agonist CV-1 Cells Efficacy (%)” value in test [2] is given as 47%. In addition, in test [3] (AR Binding Ki (nM)), affinity was put at a Ki of 58 nM.
For the compound `CCCN1CCCc2cc3[nH]c(=O)cc(C(F)(F)F)c3cc21` [Compound 199, 4-Trifluoromethyl-6-propyl-6,7,8,9-tetrahydropyrido[2,3-g]quinolin-2(1H)-one], the IC50 in test [1] (setting [4]) is more than 10000 nM. For the same compound, in test [1], the “AR Antagonist CV-1 Cells Efficacy (%)” value is “na (na = not active (i.e. efficacy of <20 and potency of >10,000))”. Also, in test [2] (setting [5]), the EC50 was 42 nM. The “AR Agonist CV-1 Cells Efficacy (%)” value in test [2] was 70%. For the same compound, the Ki in test [3] (AR Binding Ki (nM)) was 236 nM.
For the compound `O=c1cc(C(F)(F)F)c2cc3c(cc2[nH]1)CCCN3CC1CC1` [Compound 201, 4-Trifluoromethyl-6-cyclopropylmethyl-6,7,8,9-tetrahydropyrido[2,3-g]quinolin-2(1H)-one], the IC50 in test [1] (setting [4]) is more than 10000 nM. For the same compound, the “AR Antagonist CV-1 Cells Efficacy (%)” value in test [1] was “na (na = not active (i.e. efficacy of <20 and potency of >10,000))”. Also, in test [2], the “AR Agonist CV-1 Cells Efficacy (%)” value is on record as 76%. Moreover, the Ki in test [3] (AR Binding Ki (nM)) came to 10 nM.
Take `CC1=CC(C)(C)Oc2cc3oc(=O)cc(C(F)(F)F)c3cc21` [Compound 223, 6,8,8-Trimethyl-4-trifluoromethyl-8H-pyrano[3,2-g]coumarin]: in test [1] (setting [4]), the IC50 amounted to 41 nM. Besides, the “AR Antagonist CV-1 Cells Efficacy (%)” value in test [1] is 66%. This compound also returned an EC50 in test [2] (setting [5]) of more than 10000 nM. Also, in test [2], the “AR Agonist CV-1 Cells Efficacy (%)” value was “na (na = not active (i.e. efficacy of <20 and potency of >10,000))”. Further, the Ki in test [3] (AR Binding Ki (nM)) turned out to be 37 nM.
Take `CCC1=CC(C)(C)Oc2cc3oc(=O)cc(C(F)(F)F)c3cc21` [Compound 227, 6-Ethyl-8,8-dimethyl-4-trifluoromethyl-8H-pyrano[3,2-g]coumarin]: the IC50 in test [1] (setting [4]) was 25 nM. The “AR Antagonist CV-1 Cells Efficacy (%)” value in test [1] is 75%. This compound also gave an EC50 in test [2] (setting [5]) of more than 10000 nM. Also, in test [2], the “AR Agonist CV-1 Cells Efficacy (%)” value was “na (na = not active (i.e. efficacy of <20 and potency of >10,000))”. In test [3] (AR Binding Ki (nM)), this compound returned a Ki of 33 nM.
With “(+)-6,7-Dihydro-6-ethyl-4-trifluoromethyl-8H-pyrano[3,2-g]quinolin-2(1H)-one [Compound 218]”, the IC50 in test [1] (read-out: AR Antagonist CV-1 Cells Potency) is more than 10000 nM. For the same compound, the “AR Antagonist CV-1 Cells Efficacy (%)” value in test [1] is “na (na = not active (i.e. efficacy of <20 and potency of >10,000))”. In addition, the EC50 in test [2] (agonist potency or EC50, read-out: AR Agonist CV-1 Cells Potency) came out at 10 nM. Besides, in test [2], the “AR Agonist CV-1 Cells Efficacy (%)” value came out at 82%. Further, the Ki in test [3] (read-out: AR Binding Ki) was found to be 4.1 nM.
